Test results published in patent US6416979B1, “5-substituted picolinic acid compounds production by Marasmiellus sp” (Pfizer Inc., priority 1997, dated 2002).

Columns and labels:
TNF production = assay: TNF Bioassay (LPS-stimulated human whole blood, TNF titer with L929 cells); type: cell-based; details: heparinised human whole blood diluted four-fold, 10 μg/ml LPS, 37° C., 4 h; standard in vitro protocol
Procedure: (§1) Heparinised human whole blood diluted four-fold with RPMI medium was incubated with 10 μg/ml of Lipopolysaccharide (LPS) in the presence of various concentrations of samples at 37° C. in a humidified atmosphere containing 5% CO2 for 4 h. The TNF titer in the supernatants was determined with L929 cells which were destroyed by TNF quantitatively. L929 cells (2.5×10^4 cells) in 90 μl of E-MEM medium containing 1% fetal calf serum and 0.5 μg/ml of actinomycin D were placed in wells of 96-well microplates (flat-bottom). Ten μl of the supernatants was added to each well and incubated at 37° C. in a humidified atmosphere containing 5% CO2. After 18 h, the plates were rinsed with 0.9% sterile saline and stained for 10 min with 0.4% crystal violet in MeOH. The plates were washed with distilled water and were dried by air. Fifty μl of methanol was added to each well to elute the crystal violet, and the plates were read on a microplate reader (model 3550, BIO-RAD) at 595 nm. TNF production inhibitory activity is calculated by the formula: [formula]

IL-1 production = assay: IL-1 Bioassay (supernatants of LPS-stimulated human whole blood, specific ELISA); type: cell-based; details: heparinised human whole blood diluted four-fold, 10 μg/ml LPS, 37° C., 4 h, standard in vitro protocol
Procedure: as §1
The supernatants prepared by the same method as TNF bioassay were analyzed IL-1 titer by commercially available specific ELISA system. The plates were read on a microplate reader (model 3550, BIO-RAD) at 490 nm. IL-1 production inhibitory activity is calculated by the formula: [formula]

| Structure (SMILES) | TNF biosynthesis inhibitory activities (TNF production) | IL-1 biosynthesis inhibitory activities (IL-1 production) |
| --- | --- | --- |
| CC(O)C(O)c1ccc(-c2nnnn2C)nc1 (centres unmarked) [5-(1,2-di-hydroxypropyl)-2-(1-methyl-1H-1,2,3,4-tetrazol-5-yl)pyridine] | found to have the IL-1 and TNF biosynthesis inhibitory activities | found to have the IL-1 and TNF biosynthesis inhibitory activities |
| CC(O)C(O)c1ccc(-c2nnn(C)n2)nc1 (centres unmarked) [5-(1,2-di-hydroxypropyl)-2-(2-methyl-2H-1,2,3,4-tetrazol-5-yl)pyridine] | found to have the IL-1 and TNF biosynthesis inhibitory activities | found to have the IL-1 and TNF biosynthesis inhibitory activities |
| CC(O)C(O)c1ccc(C#N)nc1 (centres unmarked) [5-(1,2-dihydroxypropyl)-2-pyridinecarbonitrile] | found to have the IL-1 and TNF biosynthesis inhibitory activities | found to have the IL-1 and TNF biosynthesis inhibitory activities |
| CC(O)C(O)c1ccc(C(N)=O)nc1 (centres unmarked) [5-(1,2-dihydroxypropyl)-2-pyridinecarboxamide] | found to have the IL-1 and TNF biosynthesis inhibitory activities | found to have the IL-1 and TNF biosynthesis inhibitory activities |
| CC(O)C(O)c1ccc(C(=O)O)nc1 (centres unmarked) [5-(1,2-dihydroxypropyl)-2-pyridinecarboxylic acid] | found to have the IL-1 and TNF biosynthesis inhibitory activities | found to have the IL-1 and TNF biosynthesis inhibitory activities |
| CC(O)C(O)c1ccc(C(=O)N(C)C)nc1 (centres unmarked) [5-(1,2-dihydroxypropyl)-N,N-di-methyl-2-pyridinecarboxamide] | found to have the IL-1 and TNF biosynthesis inhibitory activities | found to have the IL-1 and TNF biosynthesis inhibitory activities |
| COC(=O)c1ccc(C(OC(=O)c2ccc(Br)cc2)C(C)OC(=O)c2ccc(Br)cc2)cn1 (centres unmarked) [methyl 5-(1,2-di-p-bromobenzoyloxypropyl)-2-pyridinecarboxylate] | found to have the IL-1 and TNF biosynthesis inhibitory activities | found to have the IL-1 and TNF biosynthesis inhibitory activities |
| COC(=O)c1ccc(C(OC(C)=O)C(C)OC(C)=O)cn1 (centres unmarked) [methyl 5-(1,2-diacetoxypropyl)-2-pyridinecarboxylate] | found to have the IL-1 and TNF biosynthesis inhibitory activities | found to have the IL-1 and TNF biosynthesis inhibitory activities |
| COC(=O)c1ccc(C(O)C(C)O)cn1 (centres unmarked) [methyl 5-(1,2-dihydroxypropyl)-2-pyridinecarboxylate] | found to have the IL-1 and TNF biosynthesis inhibitory activities | found to have the IL-1 and TNF biosynthesis inhibitory activities |
| COC(=O)c1ccc(C(OC(C)=O)C(C)O)cn1 (centres unmarked) [methyl 5-(1-acetoxy-2-hydroxypropyl)-2-pyridinecarboxylate] | found to have the IL-1 and TNF biosynthesis inhibitory activities | found to have the IL-1 and TNF biosynthesis inhibitory activities |
